Tested on: colon microbiota of human origin
Assay: TIM-2 in vitro model of the proximal colon: ammonia production
Format: cell-based
Conditions: for ammonia production (in words): daily doses of 2 g, 3 g, 4 g, 5 g, 120 h test period, versus control; for Cumulative ammonia production: mean of n = 2
Protocol: Crystalline lactulose was administered daily for 5 days to the TNO Intestinal Model (TIM-2), an in vitro model of the proximal colon. NaOH consumption, short-chain fatty acids (SCFA) production, ammonia production as well as relative abundance of microbiota were analyzed.
The substance administered in this study was lactulose crystals (S.C.M. Società Chimica Mugello S.r.l., Vicchio, Italy). Experiments without the addition of lactulose served as negative control.
The TNO Intestinal Model (TIM-2) is a dynamic in vitro model of the proximal colon. The TIM-2 system was inoculated with a highly metabolically active colon microbiota of human origin. In the system the following standardized conditions were simulated: body temperature; pH in the lumen of the proximal colon (pH 5.8); delivery of a substrate from the 'ileum' (SIEM; Standardized Ileum Efflux Medium); mixing and transport of the intestinal contents; anaerobiosis; absorption of water and absorption of fermentation products, metabolites and other low molecular weight compounds (via a semipermeable membrane inside the colon model).
SIEM simulates material passing the ileocecal valve in humans. It contained the major non-digestible carbohydrates (pectin, xylan, arabinogalactan, amylopectin, starch) found in a normal western diet as well as protein (bactopepton, casein), ox-bile, Tween 80 as well as vitamins and minerals. SIEM was added to the system at a speed of 2.5 mL/h and the speed of the dialysis liquid was 1.5 mL/min. During the experiment, the intestinal contents were mixed continuously by the peristaltic movements of the TIM-2 system. In order to simulate the transit of the chime from proximal to distal colon, 25 mL of the lumen was removed every 24 h and discarded.
Before performing each experiment, the system was inoculated with a standardized microbiota of human origin. This standardized microbiota was prepared using fecal donations from a group of 4 healthy volunteers (3 females, 1 male, age 38.8 ± 3.9 years; BMI (body mass index) 24.2 ± 1.5 kg/m^2). Individuals provided signed informed consent before participation, were non-smokers and had not used antibiotics, prebiotics, probiotics or laxatives within 1 month before the stool donation.
At the start of the adaptation period the microbiota was allowed to adapt to the model conditions and SIEM for 16 h. After the adaptation period the 120 h test period started in which lactulose was added to TIM-2 once daily.
Lactulose was added to the system at daily doses of 2 g, 3 g, 4 g, and 5 g lactulose. Each dose as well as the control experiment was studied in duplicate (n = 2). The test period of the TIM-2 experiments lasted 120 h (5 consecutive days).
Metabolites like the short-chain fatty acids (SCFA) and ammonia produced in TIM-2 were continuously removed from the lumen by a semipermeable membrane unit. This dialysate was collected at the start of the test period and after 24, 48, 72, 96, and 120 h.
Samples for ammonia analysis were centrifuged as described above. Ammonia was determined based on the Berthelot reaction.

In the case of `OC[C@H]1O[C@@H](O[C@@H]2[C@@H](CO)OC(O)(CO)[C@H]2O)[C@H](O)[C@@H](O)[C@H]1O` (mixture of isomers) [Lactulose, lactulose], the “ammonia production (in words)” value is reported as “decreased the levels”, the “ammonia production (in words)” value (listed as lactulose) is reported as “decreased mean ammonia production” and the Cumulative ammonia production (lactulose 2 g daily, 0 h, control 0) is reported as 0 mmol. For the same compound, the Cumulative ammonia production (lactulose 2 g daily, 24 h, control 10) was 9 mmol, the Cumulative ammonia production (lactulose 2 g daily, 48 h, control 31) was 29 mmol and the Cumulative ammonia production (lactulose 2 g daily, 72 h, control 55) was 48 mmol. For the same compound, the Cumulative ammonia production (lactulose 2 g daily, 96 h, control 82) was 68 mmol, the Cumulative ammonia production (lactulose 2 g daily, 120 h, control 108) was 88 mmol and the Cumulative ammonia production (lactulose 3 g daily, 0 h, control 0) was 0 mmol. It also gave a Cumulative ammonia production (lactulose 3 g daily, 24 h, control 10) of 9 mmol, a Cumulative ammonia production (lactulose 3 g daily, 48 h, control 31) of 26 mmol and a Cumulative ammonia production (lactulose 3 g daily, 72 h, control 55) of 45 mmol. It also gave a Cumulative ammonia production (lactulose 3 g daily, 96 h, control 82) of 64 mmol, a Cumulative ammonia production (lactulose 3 g daily, 120 h, control 108) of 85 mmol and a Cumulative ammonia production (lactulose 4 g daily, 0 h, control 0) of 0 mmol. The Cumulative ammonia production (lactulose 4 g daily, 24 h, control 10) was 6 mmol, the Cumulative ammonia production (lactulose 4 g daily, 48 h, control 31) was 15 mmol and the Cumulative ammonia production (lactulose 4 g daily, 72 h, control 55) was 25 mmol. It also gave a Cumulative ammonia production (lactulose 4 g daily, 96 h, control 82) of 38 mmol, a Cumulative ammonia production (lactulose 4 g daily, 120 h, control 108) of 51 mmol and a Cumulative ammonia production (lactulose 5 g daily, 0 h, control 0) of 0 mmol. For the same compound, the Cumulative ammonia production (lactulose 5 g daily, 24 h, control 10) was 5 mmol, the Cumulative ammonia production (lactulose 5 g daily, 48 h, control 31) was 12 mmol and the Cumulative ammonia production (lactulose 5 g daily, 72 h, control 55) was 22 mmol. The Cumulative ammonia production (lactulose 5 g daily, 96 h, control 82) was 32 mmol and the Cumulative ammonia production (lactulose 5 g daily, 120 h, control 108) was 41 mmol.

— patent EP3634580B1, “COMPOSITIONS COMPRISING LACTULOSE FOR MAINTAINING OR IMPROVING GUT HEALTH IN HUMANS” (Fresenius Kabi Austria GmbH, priority 2017, dated 2018)
